Data reported in the supplement of paper PMC11208160.

Assay: recombinant UMI read abundance after kanamycin selection (control-corrected) (log10(CPM+1)); higher = more efficient recombination; extreme values may be limits of the assay; sequences stand for … in AGTGCAGAGAAAATCGGCCAGTTTTCTCTGCCTGCAGTCCGCATGCCGTGGGACCCCTTGGGTTCTAACCTGTTGCCTAGATTTATGCAGCGGACTGCCTTTCTCCCAAAGTGATAAACCGG…AGGTTGGTTTCACT; site = the 11-nt donor
Description: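 Pooled E. coli donor-specificity screen for the IS621 bridge recombinase. Each library member carries a reprogrammed 11-nt donor and a full-length LE bridge RNA expressed in cis from the natural promoter, with a paired donor-binding loop (8-nt LDG + 4-nt RDG) and a target-binding loop fixed to T5. It is co-electroporated with a T5 target plasmid; recombinase is induced with 0.07 mM IPTG and recombinants are selected on kanamycin. UMIs are counted as CPM, averaged over two biological replicates and corrected by the unselected control. Molecule = full bridge RNA written as DNA, built from the T5 scaffold: LDG = donor specificity nt 1-8, RDG = reverse complement of nt 8-11.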
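Also: IS621 bridge recombinase in Escherichia coli cells against a fixed T5 target plasmid.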

Sequence | recombinant UMI read abundance (log10)
AAGAACGCATGGACCGGTTTTCCCGGTAATCCGTATTTGGG (site AAGTACGCTCC) | 0.0143
AAGAAGCCATGGACCGGTTTTCCCGGTAATCCGTATTTGCA (site AAGAAGCCTTG) | 1.32
AAGAAGCCATGGACCGGTTTTCCCGGTAATCCGTATTTGCA (site AGGAAGACTTG) | 0.00613
AAGACGACATGGACCGGTTTTCCCGGTAATCCGTATTTGGA (site AAGACGACTTC) | 0.804
AAGCACCCATGGACCGGTTTTCCCGGTAATCCGTATTTGGG (site AAGCACACTCC) | 0.0118
AAGCACCCATGGACCGGTTTTCCCGGTAATCCGTATTTGGG (site AAGCACCCTCC) | 0.0505
AAGCACCCATGGACCGGTTTTCCCGGTAATCCGTATTTGGG (site AAGCACGCTCC) | 0.00747
AAGCACCCATGGACCGGTTTTCCCGGTAATCCGTATTTGGG (site AAGCACTCTCC) | 0.371
AAGCAGACATGGACCGGTTTTCCCGGTAATCCGTATTTGGA (site AAGCAGACTTC) | 1.25
AAGCAGTCATGGACCGGTTTTCCCGGTAATCCGTATTTGAC (site AAGCAGTCTGT) | 2.88
AAGCATGCATGGACCGGTTTTCCCGGTAATCCGTATTTGGG (site AAGCAAGCTCC) | 0.0205
AAGCATGCATGGACCGGTTTTCCCGGTAATCCGTATTTGGG (site AAGCACGCTCC) | 0.00447
AAGCATGCATGGACCGGTTTTCCCGGTAATCCGTATTTGGG (site AAGCAGGCTCC) | 0.0127
AAGCATGCATGGACCGGTTTTCCCGGTAATCCGTATTTGGG (site AAGCATGCTCC) | 0.297
AAGCCGCCATGGACCGGTTTTCCCGGTAATCCGTATTTGGC (site AAGCCGCCTGC) | 0
AAGCCTTCATGGACCGGTTTTCCCGGTAATCCGTATTTGGT (site AAGCCTTCTAC) | 0.585
AAGCCTTCATGGACCGGTTTTCCCGGTAATCCGTATTTGGT (site CAGCCTTCTAC) | 0.357
AAGCCTTCATGGACCGGTTTTCCCGGTAATCCGTATTTGGT (site GAGCCTTCTAC) | 0.134
AAGCCTTCATGGACCGGTTTTCCCGGTAATCCGTATTTGGT (site TAGCCTTCTAC) | 0.12
AAGCGTCCATGGACCGGTTTTCCCGGTAATCCGTATTTGCG (site AAGCGTCCTCG) | 1.06
AAGCGTTCATGGACCGGTTTTCCCGGTAATCCGTATTTGTT (site AAGCGTTCTAA) | 1.52
AAGCTCACATGGACCGGTTTTCCCGGTAATCCGTATTTGAT (site AAGCTCACTAT) | 1.97
AAGCTCACATGGACCGGTTTTCCCGGTAATCCGTATTTGAT (site CAGCTCACTAT) | 1.5
AAGCTCACATGGACCGGTTTTCCCGGTAATCCGTATTTGAT (site GAGCTCACTAT) | 0.291

Sequence | recombinant UMI read abundance (log10)
AAGCTCACATGGACCGGTTTTCCCGGTAATCCGTATTTGAT (site TAGCTCACTAT) | 1.55
AAGGACCCATGGACCGGTTTTCCCGGTAATCCGTATTTGAA (site AAGGACCCTTT) | 1.1
AAGGACGCATGGACCGGTTTTCCCGGTAATCCGTATTTGCC (site AAGGACGCTGG) | 2.85
AAGGAGCCATGGACCGGTTTTCCCGGTAATCCGTATTTGGA (site AAGGAGCCTTC) | 0.02
AAGGCGACATGGACCGGTTTTCCCGGTAATCCGTATTTGCT (site AAGGCGACTAG) | 2.18
AAGGGACCATGGACCGGTTTTCCCGGTAATCCGTATTTGGT (site AAGGGACCTAC) | 0.00499
AAGGGGCCATGGACCGGTTTTCCCGGTAATCCGTATTTGTG (site AAGGGGCCTCA) | 0.00547
AAGGGTCCATGGACCGGTTTTCCCGGTAATCCGTATTTGAG (site AAGGGTCCTCT) | 0.405
AAGGTGCCATGGACCGGTTTTCCCGGTAATCCGTATTTGAT (site AAGGTGCCTAT) | 0.438
AAGTAAGCATGGACCGGTTTTCCCGGTAATCCGTATTTGGA (site AAGTAAGCTTC) | 1.78
AAGTATGCATGGACCGGTTTTCCCGGTAATCCGTATTTGGA (site AAATATGCTTC) | 0.814
AAGTATGCATGGACCGGTTTTCCCGGTAATCCGTATTTGGA (site AACTATGCTTC) | 1.43
AAGTATGCATGGACCGGTTTTCCCGGTAATCCGTATTTGGA (site AAGTATGCTTC) | 1.96
AAGTATGCATGGACCGGTTTTCCCGGTAATCCGTATTTGGA (site AATTATGCTTC) | 1.04
AAGTCAACATGGACCGGTTTTCCCGGTAATCCGTATTTGTG (site AAGTCAACTCA) | 0.011
AAGTCCACATGGACCGGTTTTCCCGGTAATCCGTATTTGCC (site AAGTCCACTGG) | 1.61
AAGTCCGCATGGACCGGTTTTCCCGGTAATCCGTATTTGAT (site AAGTCCGCTAT) | 1.53
AAGTCGACATGGACCGGTTTTCCCGGTAATCCGTATTTGGG (site AAGTCGACTCC) | 0.0303
AAGTCGACATGGACCGGTTTTCCCGGTAATCCGTATTTGGG (site CAGTCGACTCC) | 0.0471
AAGTCGACATGGACCGGTTTTCCCGGTAATCCGTATTTGGG (site GAGTCGACTCC) | 0.0282
AAGTCGACATGGACCGGTTTTCCCGGTAATCCGTATTTGGG (site TAGTCGACTCC) | 0.0179
AAGTCTACATGGACCGGTTTTCCCGGTAATCCGTATTTGTA (site AAGTCTACTTA) | 0.646
AAGTTCCCATGGACCGGTTTTCCCGGTAATCCGTATTTGTG (site AAGTTCCCTCA) | 0.111
AAGTTCCCATGGACCGGTTTTCCCGGTAATCCGTATTTGTG (site ACGTTCCCTCA) | 0

Sequence | recombinant UMI read abundance (log10)
AAGTTCCCATGGACCGGTTTTCCCGGTAATCCGTATTTGTG (site AGGTTCCCTCA) | 0.0112
AAGTTCCCATGGACCGGTTTTCCCGGTAATCCGTATTTGTG (site ATGTTCCCTCA) | 0.0155
AAGTTCTCATGGACCGGTTTTCCCGGTAATCCGTATTTGCC (site AAGTTCTCTGG) | 2.31
AAGTTGGCATGGACCGGTTTTCCCGGTAATCCGTATTTGCA (site AAGTTGGCTTG) | 2.05
AAGTTTACATGGACCGGTTTTCCCGGTAATCCGTATTTGAC (site AAGTTTACTGT) | 1.97
AATAAGACATGGACCGGTTTTCCCGGTAATCCGTATTTGAA (site AATAAGACTTT) | 1.86
AATAGAACATGGACCGGTTTTCCCGGTAATCCGTATTTGAG (site AATAGAACTCT) | 2
AATAGAACATGGACCGGTTTTCCCGGTAATCCGTATTTGAG (site ACTAGAACTCT) | 1.6
AATAGAACATGGACCGGTTTTCCCGGTAATCCGTATTTGAG (site AGTAGAACTCT) | 0.412
AATAGAACATGGACCGGTTTTCCCGGTAATCCGTATTTGAG (site ATTAGAACTCT) | 0.329
AATAGGACATGGACCGGTTTTCCCGGTAATCCGTATTTGCG (site AATAGGACTCG) | 1.97
AATAGTGCATGGACCGGTTTTCCCGGTAATCCGTATTTGGT (site AATAGTGCTAC) | 1.23
AATAGTGCATGGACCGGTTTTCCCGGTAATCCGTATTTGGT (site ACTAGTGCTAC) | 0.687
AATAGTGCATGGACCGGTTTTCCCGGTAATCCGTATTTGGT (site AGTAGTGCTAC) | 0.602
AATAGTGCATGGACCGGTTTTCCCGGTAATCCGTATTTGGT (site ATTAGTGCTAC) | 0.53
AATATAACATGGACCGGTTTTCCCGGTAATCCGTATTTGCT (site AATATAACTAG) | 1.99
AATATAACATGGACCGGTTTTCCCGGTAATCCGTATTTGCT (site AATCTAACTAG) | 0.615
AATATAACATGGACCGGTTTTCCCGGTAATCCGTATTTGCT (site AATGTAACTAG) | 1.47
AATATAACATGGACCGGTTTTCCCGGTAATCCGTATTTGCT (site AATTTAACTAG) | 0.0427
AATCATGCATGGACCGGTTTTCCCGGTAATCCGTATTTGGA (site AATAATGCTTC) | 0.666
AATCATGCATGGACCGGTTTTCCCGGTAATCCGTATTTGGA (site AATCATGCTTC) | 0.584
AATCATGCATGGACCGGTTTTCCCGGTAATCCGTATTTGGA (site AATGATGCTTC) | 0.351
AATCATGCATGGACCGGTTTTCCCGGTAATCCGTATTTGGA (site AATTATGCTTC) | 0.636
AATCCATCATGGACCGGTTTTCCCGGTAATCCGTATTTGTA (site AATCCATCTTA) | 1.06
